In article PMC2680759, “Non-Invasive Molecular Imaging of Fibrosis Using a Collagen-Targeted Peptidomimetic of the Platelet Collagen Receptor Glycoprotein VI” (PLoS ONE, 2009):

Experiments:
[1] = system: fibrotic myocardial infarction scar; type: in vivo, rat; conditions: directly labeled tracer
Procedure: Myocardial infarction of the left ventricle was induced in rats as follows. Male Wistar rats (CERJ, France) were housed in a controlled environment and fed with a standard rat chow. Myocardial infarction of the left ventricle was induced by ligature of the left descending coronary artery performed under general anesthesia [1 mL.kg^−1 i.p. ketamine (Imalgene 500, Merial) and 0.5 mL.kg^−1 i.p. xylazine (Rompun, Bayer)] and positive pressure ventilation, as described. This protocol was performed under a permit from the French Veterinary Services Directorate.
(§1) Two types of control animals were used: healthy rats, and healthy rats which had undergone a simple throracotomy (sham-operated). ^99mTc-biotin-collagelin blood kinetics and biodistribution were investigated by counting blood samples (taken from a jugular catheter) for 6 h after i.v. injection, and organs (extracted after sacrifice) 2 h after injection in a gamma-counter, together with aliquots of the injected preparation (CobraII, Packard, Meriden, USA). Ex vivo myocardial labeling and isotopic imaging were performed 4 weeks after the coronary ligature (or throracotomy), when the lesions had had the time to heal.
For in vivo experiments, radiotracers (70 MBq) were administered i.v. to anesthetized animals (pentobarbital i.p. 6 mg/100 g BW, Ceva Santé Animale, France) within 2 h of radiolabeling. Scintigraphic images were obtained 0–2 h, 4 h, 6 h, 10 h and 24 h after injecting ^99mTc-streptavidin-biotin peptides and 0–3 h after injecting ^99mTc-biotinylated peptides. Planar and tomographic 1-h acquisitions were performed using a dedicated small animal γIMAGER system (Biospace Lab, Paris, France) equipped with 2 parallel low-energy high-resolution collimators (matrix 128×128, 15% energy window centered on 140 KeV). Tracer uptake in the left cardiac area was assessed visually. Two regions of interest were drawn on the scintigrams, over the heart and over the right lung. The mean activity (cpm) per pixel was determined in each region of interest. Then heart-to-lung activity ratios (HLR) were calculated on both planar and transversal tomographic images.

[2] = system: rat myocardial scar sections; test: Ex vivo incubation of myocardial scar sections with radiotracers; conditions: directly Tc-99m-labeled peptides, 120 MBq/ml RPMI, 2 h, p<0.05
Procedure: Rat aorta and rat myocardial scar sections were incubated in the presence of ^99mTc-biotin-collagelin, +/−9012 moAb, or ^99mTc-biotin-control peptide Pc (120 MBq/ml of RPMI) for 2 h. The tissues were then rinsed 5 times for periods of 1 minute, and exposed to the gamma-camera as well as to the instant imager for quantitative autoradiography (Instant Imager, Packard) for 15 h.

in vivo = conditions: rat, iv
Procedure: as §1

[3] = system: collagen fibers of the infarct scars; test: Post mortem autoradiography of frozen myocardial sections; type: in vivo, rat; conditions: directly Tc-99m-labeled peptides, frozen myocardial sections
Procedure: After sacrificing the animals, the heart was removed and frozen, then 20-micrometer thick myocardial sections were cut perpendicular to the short axis of the ventricles in a cryostat, and exposed in a radioimager for 16 h. According to calibration studies performed with activity standards of tissue-equivalent homogenates, 50 counts/mm^2 of ^99m Tc-labeled tracers corresponded to ∼210 kBq/mg in autoradiography. The myocardial sections used for autoradiography, and contiguous heart sections (5 µm) fixed in acetone (−20°C), were stained with hematoxylin-eosin, Masson's trichrome and picrosirius red to determine the location and extent of the fibrotic myocardial scarring.

murine laminin (murine) = murine laminin (murine) (UniProt P19137); test: SPR; collagelin and laminin
[4] = biological target: fibrillar type I collagen (Homo sapiens, UniProt P02452+P08123); test: Solid phase assay on collagen-coated microtitration plates; type: binding; conditions: n = 3
Chain of fibrillar type I collagen (P02452 162-1218 limits assumed): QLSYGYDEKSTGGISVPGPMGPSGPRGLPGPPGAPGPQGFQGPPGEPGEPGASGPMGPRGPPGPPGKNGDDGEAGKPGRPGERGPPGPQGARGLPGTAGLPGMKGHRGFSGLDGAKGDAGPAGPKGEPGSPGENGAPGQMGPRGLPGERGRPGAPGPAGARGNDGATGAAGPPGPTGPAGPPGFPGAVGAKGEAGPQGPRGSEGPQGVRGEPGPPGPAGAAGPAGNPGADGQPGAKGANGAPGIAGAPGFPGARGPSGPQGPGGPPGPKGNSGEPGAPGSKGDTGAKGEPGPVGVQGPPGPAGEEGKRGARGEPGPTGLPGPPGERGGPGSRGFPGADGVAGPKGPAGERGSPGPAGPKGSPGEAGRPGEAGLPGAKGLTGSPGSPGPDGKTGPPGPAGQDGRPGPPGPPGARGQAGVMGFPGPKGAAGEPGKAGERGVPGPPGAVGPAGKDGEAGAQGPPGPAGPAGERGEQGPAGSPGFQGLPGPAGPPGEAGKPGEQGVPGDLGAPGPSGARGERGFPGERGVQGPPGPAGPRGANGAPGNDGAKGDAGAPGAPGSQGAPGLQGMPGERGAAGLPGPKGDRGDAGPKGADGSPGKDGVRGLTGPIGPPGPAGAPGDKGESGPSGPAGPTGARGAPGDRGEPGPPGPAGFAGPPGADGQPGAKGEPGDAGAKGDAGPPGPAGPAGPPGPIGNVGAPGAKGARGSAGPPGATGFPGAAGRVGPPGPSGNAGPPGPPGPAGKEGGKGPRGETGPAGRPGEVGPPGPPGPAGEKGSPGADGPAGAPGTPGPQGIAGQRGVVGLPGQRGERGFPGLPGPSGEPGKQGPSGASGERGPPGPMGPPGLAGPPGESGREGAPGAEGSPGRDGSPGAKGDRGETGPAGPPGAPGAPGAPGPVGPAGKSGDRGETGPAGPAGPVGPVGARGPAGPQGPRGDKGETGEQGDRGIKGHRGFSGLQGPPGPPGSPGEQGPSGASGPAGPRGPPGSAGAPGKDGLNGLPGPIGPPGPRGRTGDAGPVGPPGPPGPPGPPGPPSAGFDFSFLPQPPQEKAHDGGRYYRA
Chain of fibrillar type I collagen (P08123 80-1119 limits assumed): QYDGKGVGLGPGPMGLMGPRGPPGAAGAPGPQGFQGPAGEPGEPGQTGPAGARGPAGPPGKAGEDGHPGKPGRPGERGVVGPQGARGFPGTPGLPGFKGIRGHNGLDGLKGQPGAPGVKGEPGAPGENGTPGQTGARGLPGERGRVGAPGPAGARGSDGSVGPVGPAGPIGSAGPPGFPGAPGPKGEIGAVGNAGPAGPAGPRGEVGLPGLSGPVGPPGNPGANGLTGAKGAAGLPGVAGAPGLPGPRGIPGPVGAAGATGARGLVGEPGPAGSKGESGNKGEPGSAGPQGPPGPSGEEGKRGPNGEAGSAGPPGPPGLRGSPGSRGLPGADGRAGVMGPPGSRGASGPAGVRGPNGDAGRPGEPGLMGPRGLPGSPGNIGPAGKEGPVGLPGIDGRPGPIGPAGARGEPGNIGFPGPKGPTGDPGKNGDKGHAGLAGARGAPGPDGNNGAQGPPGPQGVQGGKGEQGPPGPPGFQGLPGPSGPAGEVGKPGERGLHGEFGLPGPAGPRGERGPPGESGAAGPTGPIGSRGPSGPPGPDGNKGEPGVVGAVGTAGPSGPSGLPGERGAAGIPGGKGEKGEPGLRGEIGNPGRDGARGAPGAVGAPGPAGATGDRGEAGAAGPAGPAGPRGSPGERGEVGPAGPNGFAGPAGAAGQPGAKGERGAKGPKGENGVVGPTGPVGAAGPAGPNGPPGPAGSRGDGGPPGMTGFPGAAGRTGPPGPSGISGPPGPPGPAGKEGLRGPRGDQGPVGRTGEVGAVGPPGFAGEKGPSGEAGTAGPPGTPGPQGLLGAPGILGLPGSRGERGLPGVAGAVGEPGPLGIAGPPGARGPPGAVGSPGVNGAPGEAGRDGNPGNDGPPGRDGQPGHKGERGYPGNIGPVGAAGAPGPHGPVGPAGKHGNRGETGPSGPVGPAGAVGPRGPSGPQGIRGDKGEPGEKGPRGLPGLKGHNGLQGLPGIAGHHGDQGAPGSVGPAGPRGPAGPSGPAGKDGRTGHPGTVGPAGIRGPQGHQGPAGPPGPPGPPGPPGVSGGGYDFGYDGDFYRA
Procedure: Biotin-peptides (50 µg.mL^−1) were incubated on microtitration wells, coated with 1 µg of type-I collagen, convulxin, collagen related peptides, bovine fibrinogen, human fibronectin, rat vitronectin, murine laminin or bovine serum albumin. Bound peptides were detected using HRP-coupled extravidin and the HRP substrate O-phenyl-dianisidine.

[5] = system: collagen in sections of rat aorta and tail tendon; test: Histochemical analysis of rat aorta and tail tendon sections; conditions: frozen sections of rat aorta and tail tendon, biotin-peptide 200 µg/mL, HRP-coupled streptavidin
Procedure: Sections were counter-stained with hematoxylin-eosin (Merck). Collagen was stained using picrosirius red. Sections ([…]) of rat tail tendon were processed as above.

9O12.2 IgG = test: SPR, 9O12.2 IgG injected over immobilized B-collagelin; type: binding
Procedure: 9O12.2 IgG was injected over biotin-peptides coupled to an SA-sensorchip in a Biacore 2000 instrument. […] In some experiments, the peptide was reduced by DTT on the sensor chip before the IgG was injected. Competition experiments were performed by mixing the IgG with recombinant soluble GPVI (25 µg.mL^−1). Collagen binding to the peptide was analyzed by injecting type-I collagen (200 µg.mL^−1) onto the peptide-coated sensorchip. Conversely, biotin-peptides (125, 250, 500 and 1000 µg.mL^−1) were perfused over fibrillar collagen immobilized on a CM5-sensorchip.

CSCC[C@@H]1NC(=O)[C@H](C(C)C)NC(=O)[C@H](CCCNC(=N)N)NC(=O)CNC(=O)[C@@H]2CCCN2C(=O)[C@@H](NC(=O)CNC(=O)[C@H](CO)NC(=O)CNC(=O)[C@H](CO)NC(=O)CCCC[C@@H]2SC[C@@H]3NC(=O)N[C@@H]32)CSSC[C@@H](C(N)=O)NC(=O)[C@@H]2CCCN2C(=O)CNC(=O)[C@H](CCC(=O)O)NC(=O)[C@H](CC(=O)O)NC(=O)[C@H](CC(=O)O)NC(=O)CNC(=O)[C@H](CC(C)C)NC(=O)[C@H](Cc2c[nH]cn2)NC(=O)[C@H](CC(C)C)NC(=O)CNC(=O)[C@H](Cc2c[nH]cn2)NC1=O [^99mTc-collagelin, metal not drawn]
Tracer uptake in the cardiac area, sham-operated rats ([1]; n = 6): No tracer uptake | Probe uptake in the cardiac area, rats with MI scars ([1]; planar and SPECT images two hours after injection, all but one of the rats, n = 8): significant uptake | Ex vivo uptake in scarred tissue of myocardial sections [2]: accumulated in the scarred tissue | Blood clearance half life (in vivo): 5 ± 0.5 min | tissue uptake at 2 h (in vivo; 1 nmol, total radioactivity): 0.36 %ID/g | Autoradiographic labeling of the scar [3]: coincided with the collagen fibers of the scars

B-collagelin (collagelin conjugated with biotin) (peptide)
Kd (murine laminin (murine)): 18.3 µM

SGSGCPGRVMHGLHLGDDEGPC (disulfide) [B-collagelin]
Binding to collagen-coated plates ([4]; peptide 50 µg/mL, HRP-coupled extravidin detection): bound | Histochemical staining of tissue collagen [5]: Positive and specific brown staining | Kd (9O12.2 IgG; read-out: KD of 9O12.2 IgG binding to immobilized B-collagelin, SPR, Biacore 2000, biotin-peptide on SA-sensorchip, IgG 1.25 to 10 µg/mL, KD = koff/kon): 1 µM

B1: GPVI-Fc: soluble recombinant GPVI, extracellular part of GPVI fused to the IgG Fc domain (protein)
chain: QSGPLPKPSLQALPSSLVPLEKPVTLRCQGPPGVDLYRLEKLSSSRYQDQAVLFIPAMKRSLAGRYRCSYQNGSLWSLPSDQLELVATGVFAKPSLSAQPGPAVSSGGDVTLQCQTRYGFDQFALYKEGDPAPYKNPERWYRASFPIITVTAAHSGTYRCYSFSSRDPYLWSAPSDPLELVVTGTSVTPSRLPTEPPSPVAEFSEATAELTVSFTNEVFTTETSRSITASPKESDSPAGPARQYYTK
modifications: left off: Fc (IgG), end not stated, kept
notes: soluble recombinant GPVI, extracellular part of GPVI fused to the IgG Fc domain
Inhibition of B-collagelin binding to collagen-coated plates ([4]; competitor 50 µg/mL mixed with B-collagelin 50 µg/mL): completely inhibited | Effect on binding of 9O12.2 IgG to collagelin (9O12.2 IgG; SPR competition, IgG 5 µg/ml mixed with recombinant soluble GPVI 25 µg/ml): inhibited
